For orientation: IC50 means the midpoint of a concentration-inhibition curve.

One data set concerns HSV-2, strain MS. Briefly: Prophylactic guinea pig model of HSV infection. The data set is classed as in vivo. As to conditions: 60 mg/kg s.c. (test compounds) T.I.D., 10 days, first dose 24 h before infection; for MSL (Maximum Lesion score): scale of 1-4. The method, then: The in vivo assessment of anti-HSV efficacy was determined in the prophylactic guinea pig model of HSV infection described by Stansberry et al (1982). Dosing of guinea pigs comprised an initial treatment with test compound given 24 hours prior to virus infection and subsequent administration of the compound every eight hours (T.I.D.) for a total of 10 days. Test compounds were administered subcutaneously in 0.5% buffered methyl celluslose at a dose of 60 mg per kg body weight of the animal. Animals were monitored daily for the development of genital lesions and neurological symptomology, both of which were recorded and compared to the results obtained with parallel groups which received placebo or acyclovir treatment. Efficacy was evaluated for each compound by scoring the ability of the compound to ameliorate genital lesions produced by infection with HSV-2, strain MS, expressed as Maximum Lesion Scores (MLS) on a scale of 1 (least lesions) to 4 (severe lesions).

Data set [1] concerns the target T1, cGMP phosphodiesterase (cGMP-PDE) (Bos taurus, UniProt Q28156).
T1 construct: is a homogeneous enzyme obtained from bovine lung; from tissue; host or cells: bovine lung
Briefly: Inhibition of cGMP phosphodiesterase in vitro. The data set is classed as biochemical, bovine. The settings on record: 1 μM 3H-cGMP, pH 7.5, 25 min, room temperature.

The nature of data set [2]: Blood pressure in conscious spontaneously hypertensive rats (SHR). The data set is classed as in vivo. On the procedure: The ability of the compounds to lower blood pressure can be assessed in vivo in conscious spontaneously hypertensive rats (SHR). SHR are purchased from Taconic Farms, Germantown, N.Y. and are approximately 16-18 weeks old when anesthetized with ether. The caudal ventral tail) artery is cannulated with polyethylene tubing (PE50) and blood pressure and heart rate are recorded as described by Baum, T. et. al, J. Cardiovasc. Pharmacol. Vol 5, pp. 665-667, (1983). Rats are placed into pastic cylindrical cages where they rapidly recover consciousness. Blood pressure and heart rate are allowed to stabilize for approximately 90 minutes prior to compound administration. Compounds are administered orally as solutions or suspensions in 0.4% aqueous methylcellulose vehicle via a feeding needle. The compound or 0.4% aqueous methylcellulose vehicle are given in a volume of 4 ml/kg to SHRs that had been fasted overnight. Alternatively,compounds are administered intravenously. The compound is solubilized with a minimum amount of an organic solvent such as ethanol or dimethylsulfoxide and given in physiological saline. Activity is expressed as the fall in mean blood pressure (MBP) in millimeters of mercury (mm Hg). Compound-induced changes are compared with the changes in an appropriate placebo group.

Another data set deals with HSV-2 (strain MS). Briefly: HSV-β-Gal assay: transient expression of beta galactosidase in transfected HeLa cells superinfected with HSV-2. The class given is cell-based. The method, then:
(§1) HeLa and Vero cell cultures were maintained in Eagles Minimal Essential Medium (EMEM) which was supplemented with glutamine, penicillin, streptomycin and 10% fetal calf serum (10% EMEM). Stock cultures of HSV-2 (strain MS available from ATCC VR-540) were grown in and harvested from Vero cells. Viral stocks were titered in Vero cells according to established procedures.
Plasmid pON 245^ori- contains the promoter of the HSV-1 thymidine kinase (tk) gene located immediately 5'of the E. coli lac Z gene. In this arrangement, the tk promoter controls transcription from the bacterial gene in transient expression assays. Additionally, an SV40 polyadenylation signal is present at the 3' end of the lac Z gene to allow for the efficient translation of the mRNA in eucaryotic cells. The expression of beta galactosidase in a transient assay using pON 245^ori- is dependent upon superinfection of the transfected cells with HSV. […] For example see U.S. application Ser. No. 07/435,491 filed Sep. 5, 1989, the disclosure of which is incorporated herein by reference thereto.
HeLa cells were seeded into 96 well microtiter plates and allowed to grow to 80% confluency (approximately 35000 cells/well). One half microgram of plasmid pON 245^ori- DNA was introduced into the cells of each well by the […] precipitation technique (Grahman and Van der Eb, 1973). Four to six hours later, the cells were rinsed with hank's Balanced Salt Solution (HBSS), overlaid with 10% EMEM and incubated at 37° C. At 24 hours post-transfection, cells were rinsed, overlaid with 10% EMEM again and re-incubated at 37° C. At 48 hours post-transfection, cells were rinsed and overlaid with either EMEM containing 2% fetal calf serum (2% EMEM), 2% EMEM containing HSV-2 (strain MS, Multiplicity of Infection [moi]=5 pfu/cell) or 2% EMEM containing HSV-2 and the appropriate concentration of Schering compound to be tested. Twenty-four hours later, the cells were harvested and assayed for beta galactosidase activity as described below.
All determinations of beta galactosidase activity were performed in 96 well microtiter plates. The intracellular level of beta galactosidase activity in each well was determined from cell lysates of the monolayer cultures. Aliquots were assayed by incubation in the presence of beta galactosidase substrate, 4-methylumbelliferyl-β-D-galactoside (MUG, 125 ug/ml, Sigma), for 2 hours. The generation of fluorescent product was quantified on a Microfluor microfluorimeter (Dynatech) after addition of 0.1M glycine, pH 10.3 (Spaete and Mocarski, 1985). The inhibitory activity of a compound was plotted versus the concentration and an IC50 value (the concentration of compound required to reduce beta glactosidase expression by 50%) was obtained for each compound tested.

Data set [3] can be described thus: Compound toxicity assay: inhibition of HeLa cell translation (3H-leucine incorporation). The data set is classed as cell-based. As to conditions: human, HeLa cells. On the procedure: as §1
HeLa cells were treated with inhibitory compound for 24 hours, after which levels of translational activity were assayed.
For assay of translational activity, HeLa cultures were grown to 80% confluency in 96 well microtiter plates, treated with appropriate concentrations of compound in 2% EMEM during an overnight incubation at 37° C., then rinsed with HBSS and overlaid with […] of 2% EMEM containing 8 uCi of tritiated leucine (^3 H-LEU, […], Amersham Corp., Arlington Heights, Ill.). After a 1 hour incubation at 36.5°C., the cells were rinsed twice with phosphate buffered saline (PBS) and lysed in 400 ul/well of 1×PBS, 0.5% sodium dodecyl sulphate (SDS). After a 10 min incubation at 36.5° C., the contents of the well were transferred to a well in a Millititer HA microfiltration plate (Millipore Corp., Bedford, Mass.). The TCA insoluble proteins were precipitated onto the filter disc by a 10 min fixation with 5% TCA, followed by filtration under vacuum and three 10 minute rinses with 95% ethanol. The filters were dried at room temperature, cut from the milltitier plate and transferred to scintillation vials. TCA precipitable counts were assayed in 5 ml of Scintisol (Isolab, Akron, Ohio). The inhibitory activity of a compound was plotted versus the concentration and an IC50 value (that concentration of the compound required to decrease cellular translational activity by 50%) was derived for each compound.

The test system of the next data set is HeLa cells. Described as above. The class given is cell-based. The settings on record: Homo sapiens, Table II^1, read-out: Cytoxicity 3H-LEU assay IC50.
The subject of a further data set is herpes virus. The settings on record: added to lidocaine or lidocaine hydrochloride; cited from earlier work.
The next data set deals with HSV-1. The settings on record: cited from earlier work.
The subject of the next data set is HSV-2. The settings on record: cited from earlier work.
Setting [4] is: Table II, read-out: Cytotoxicity 3H-LEU assay IC50.
[5] abbreviates: Human alphaherpesvirus 2, Table II^1, HeLa cells, HSV-2 strain MS, 24 h, read-out: Anti-HSV activity HSV-β-Gal assay IC50.

SMILES strings stand for the structures. In brackets after ≈: the same amount, converted by molar mass. Read-outs that look alike come from different tables or passages of the source.

For the compound `Nc1nc2c(ncn2COCCO)c(=O)[nH]1` [Acyclovir, 9-[(2-hydroxyethoxy)methyl]guanine, reference compound], in the data set on HSV-2, strain MS, the “Neurological dysfunction (percentage animals developing loss of bladder/hindlimb control)” value was 44% and the “MSL (Maximum Lesion score)” value was 1.61.

Regarding `CCOC(=O)c1c(OC)c2cc(C)ccc2n(Cc2ccccc2)c1=O` [Compound 7, 1-benzyl-3-ethoxycarbonyl-4-methoxy-6-methyl-2(1H)-quinolinone], the IC50 was 8 µM in [1] (Table VII) and 3 µg/mL (≈ 8.54 µM) in the data set on HSV-2 (strain MS) (Human alphaherpesvirus 2, HeLa, 24 h, read-out: Anti-HSV activity, HSV-β-GAL assay IC50). In data set [2] (Table VII, at 25 mpk (P.O.)), the “MBP (fall in mean blood pressure)” value was 0 mm Hg. The CC50 at 24 h in data set [3] (setting [4]) is 37 µg/mL (≈ 105 µM).

In the case of `CCCCCCn1c(=O)c(CO)c(OC)c2cc(C)ccc21` [Compound 9, 1-Hexyl-3-Hydroxymethyl-4-Methoxy-6-Methyl-2(1H)-Quinolinone], the 50% inhibitory concentration (IC50) in data set [1] (Table VI) was 6 µM. Moreover, in the data set on HSV-2, strain MS, the “Neurological dysfunction (percentage animals developing loss of bladder/hindlimb control)” value is listed as 44% and the “MSL (Maximum Lesion score)” value is 1.44. Besides, the concentration for half-maximal inhibition (IC50) in the data set on HSV-2 (strain MS) (Human alphaherpesvirus 2, Table II, HeLa cells, HSV-2 strain MS, 24 h, read-out: Anti-HSV activity, HSV-β-GAL assay IC50) is below 3 µg/mL. In addition, the CC50 at 24 h in data set [3] (setting [4]) turned out to be 25 µg/mL (≈ 82.4 µM).

In data set [1] (Table VI), `CCOC(=O)c1c(OCCN(C)C)c2cc(C)ccc2n(Cc2ccccc2)c1=O` [Compound 27] returned an IC50 of 4 µM. Also, the figures for the “MBP (fall in mean blood pressure)” value in data set [2] (25 mpk p.o.), in [2] (50 mpk p.o.) and in data set [2] (100 mpk p.o.) were 19 mm of Hg, 24 mm of Hg and 59 mm of Hg, respectively.

With `CCCCCCn1c(=O)c(C(=O)OCC)c(OC)c2cc(C)ccc21` [Compound 28, 1-hexyl-3-ethoxycarbonyl-4-methoxy-6-methyl-2(1H)-quinolinone], it took 3 µM to reach half-maximal inhibition in data set [1] (Table VI) (IC50).

`Cc1c(OC(=O)c2cccn2C)ccc2c(N)cc(=O)oc12` [Compound 69, 4-Amino-7-(N-Methyl-Pyrrol-2-Carbonyloxy)-8-Methyl-Benzopyran-2-one]: the IC50 in the data set on HeLa cells stood at 100 µg/mL (≈ 335 µM); in the data set on HSV-2 (strain MS) (setting [5]), 9.8 µg/mL (≈ 32.9 µM).

Take `Cc1c(OC(=O)c2ccc[nH]2)ccc2c(N)cc(=O)oc12` [Compound 70, 4-Amino-7-(Pyrrol-2-carbonyloxy)-8-Methyl-Benzopyran-2-one]: the IC50 in the data set on HeLa cells is 74 µg/mL (≈ 260 µM); in the data set with HSV-2 (strain MS) (setting [5]), 15.5 µg/mL (≈ 54.5 µM).

`CCOC(=O)c1c(OC(=O)c2ccc[nH]2)c2ccccc2n(C)c1=O` [Compound 101]: the IC50 in the data set with HSV-2 (strain MS) (Human alphaherpesvirus 2, HeLa, read-out: HSV: antiHSV activity, HSVβ-Gal Assay, IC50) is 20 µg/mL (≈ 58.8 µM). For the same compound, the CC50 at 24 h in [3] (Table IV compound, read-out: Cytotoxicity 3H-Leu Assay IC50) was found to be 40 µg/mL (≈ 118 µM).

Turning to `CC(C)(CO)[C@@H](O)C(=O)NCCCO` [dexpanthenol], in the data set with herpes virus, the “enhancement of antiviral activity of lidocaine or lidocaine hydrochloride” value is listed as “significantly enhances”.

`CCN(CC)CC(=O)Nc1c(C)cccc1C` [lidocaine, 2-(diethylamino)-N-(2,6-dimethylphenyl)acetamide]: the “antiviral activity in cell culture” value with HSV-1 and in the data set on HSV-2 was “antiviral agent” in each case.

Turning to `CC(C)(CO)[C@@H](O)C(=O)NCCC(=O)O` [pantothenic acid], the “enhancement of antiviral activity of lidocaine or lidocaine hydrochloride” value in the data set with herpes virus is on record as “significantly enhances”.

Source of the values: patent US5942522A, “Antiviral compounds and antihypertensive compounds” (Schering Corporation, priority 1997, dated 1999).
